In patent publication US20190092720A1, “FUNCTIONALIZED BENZAMIDE DERIVATIVES AS ANTIVIRAL AGENTS AGAINST HBV INFECTION” (BARUCH S. BLUMBERG INSTITUTE, priority 2012, published 2019):

Legend:
Assay type in all cases: cell-based, Hepatitis B virus (HBV)
[1] = system: HBV replication in HepDES19 cells; test: Antiviral activity in HepDES19 cells (core-associated HBV DNA, Southern blot); details: Hepatitis B virus, HepDES19, 144 h, concentration that reduces core-associated HBV DNA by 50%; 6 days; serial dilution 10 μM to 0.018 μM
From the text: Determination of antiviral activity of compounds of the disclosure, as presented in Table 1, in human hepatoma-derived cell lines: To further confirm the antiviral activity of the compounds of the disclosure against HBV in human hepatocyte-derived cells, HepDES19 cells, a human hepatoma cell line supporting HBV replication in a tetracycline inducible manner (Guo et al., 2007), seeded into 12-well plates at a density of 5×10^5 cells per well and cultured in DMEM/F12 media with 10% fetal bovine serum and 1 μg/ml tetracycline. Two days after seeding, the cells were mock-treated or treated with a serial dilution of compounds of the disclosure, ranging from 10 μM to 0.018 μM, for 6 days in the absence of tetracycline. Upon the completion of treatment, cells were lysed by adding into each well of the 12-well plates 0.5 ml of lysis buffer containing 10 mM Tris-HCl (pH 8.0), 1 mM EDTA, 1% NP40 and 2% sucrose and incubating at 37° C. for 10 minutes. Cell debris and nuclei were removed by centrifugation and the supernatant was mixed with 130 μl of 35% polyethylene glycol (PEG) 8000 containing 1.5 M NaCl. After 1 hour incubation in ice, viral nucleocapsids were pelleted by centrifugation at 6,000×g for 5 min at 4° C., followed by 1 hour digestion at 37° C. in 400 μl of digestion buffer containing 0.5 mg/ml pronase (Calbiochem), 0.5% SDS, 150 mM NaCl, 25 mM Tris-HCl (pH 8.0) and 10 mM EDTA. The digestion mixture was extracted twice with phenol and DNA was precipitated with ethanol, dissolved in TE buffer (10 mM Tris-HCl, pH 8.0; 0.1 mM EDTA). One half of the DNA sample from each well was resolved by electrophoresis into a 1.5% agarose gel. The gel was then subjected to denaturation in a solution containing 0.5 M NaOH and 1.5 M NaCl, followed by neutralization in a buffer containing 1 M Tris-HCl (pH7.4) and 1.5 M NaCl. DNA was then blotted onto Hybond-XL membrane (GE Health care) in 20×SSC buffer. The amounts of cytoplasmic HBV core-associated HBV DNA were determined by Southern blot hybridization and the antiviral efficacy of a compound was expressed as its concentration that reduce the amount of HBV DNA by 50% (EC50) or 90% (EC90).

HBV mRNA = test: Intracellular viral RNA by Northern blot in AML12HBV10 cells; details: 2 days, FIG. 1 panel A
Method: (§1) FIG. 1. Antiviral mechanism of the compounds of the present invention. AML12HBV10 cells were left untreated (NT) or treated with the indicated concentrations of the compounds of the disclosure Compound 6 and Compound 19, respectively, for 2 days. Bay-4109 (3 µM) or AT-61 (25 µM) served as positive controls. (A) Intracellular viral RNA was determined by Northern blot hybridization. Ribosomal RNA served as a loading control. (B) The total amounts of nucleocapsids were determined by a particle gel assay. (C) Encapsidated pgRNA were extracted and measured by Northern blot. (D) Nucleocapsid-associated HBV DNA was quantified by alkaline-treatment of nucleocapsids on the membrane following the particle gel assay and hybridized with a HBV-specific riboprobe. (E) HBV DNA replication intermediates were extracted and determined by Southern blot hybridizations.
Procedure for analysis of HBV mRNA: Upon the completion of treatment, total cellular RNA was extracted with TRIzol reagents (Invitrogen). Five micrograms of total RNA was resolved in 1.5% agarose gel containing 2.2 M formadelhyde and transferred onto Hybond-XL membrane in 20×SSC buffer. The amounts of HBV mRNA were determined by Northern blot hybridization with an alpha-^32P-UTP labeled riboprobe specific for plus strand of HBV genome.

encapsidated pgRNA = test: Encapsidated pgRNA by Northern blot in AML12HBV10 cells; details: 2 days, FIG. 1 panel C
Method: as §1
Determination of encapsidated pgRNA: AML12HBV10 cells were lysed by addition of 600 μl of lysis buffer (50 mM Tris-HCl [pH 7.5], 1 mM EDTA, 150 mM NaCl, 1% NP-40) into each well of 12-well plates. The nuclei were removed by centrifugation at 5,000 g for 10 minutes. One-half of the sample was mixed with 6 U of micrococcal nuclease (Pharmacia) and 15 μl of 100 mM CaCl2 and incubated for 15 minutes at 37° C. to digest free nucleic acids. The reaction was stopped with 6 μl of 0.5 M EDTA, and capsids were precipitated by adding 125 μl of 35% polyethylene glycol 8000 in 1.75 M NaCl to the reaction and incubating in ice for 30 minutes, followed by centrifugation at 6,000 g for 10 minutes at 4° C. Pellets were re-suspended in 50 μl of TNE buffer (10 mM Tris-HCl [pH 8], 100 mM NaCl, 1 mM EDTA). pgRNA was extracted by the addition of 1 ml of Trizol reagent. The encapsidated pgRNA were electrophoresed through a 2.2 M formaldehyde-1% agarose gel, transferred to a nylon membrane, and immobilized by UV cross-linking (Stratagene). Hybridization was performed with an alpha-^32P-UTP labeled riboprobe specific for plus strand of HBV genome.

O=C(Nc1cccc(Cl)c1)c1scc2c1OCCO2 [Entry 6]
EC50 [1]: 13.5 µM | amount of viral mRNA (HBV mRNA): did not affect | level of encapsidated pgRNA (encapsidated pgRNA): dose-dependently reduced
